Read-outs that look alike come from different tables or passages of the source.
Experiments:
H1047R PIK3CA enzyme = H1047R PIK3CA enzyme (Homo sapiens, UniProt P42336, H1047R); test: ADP-Glo Biochemical PIK3CA Kinase Assay
cells = conditions: Homo sapiens, MCF-10A, read-out: MCF10A I50
[1] = ADP-Glo biochemical PIK3CA kinase assay

H1047R PIK3CA enzyme, sequence (P42336 whole entry H1047R): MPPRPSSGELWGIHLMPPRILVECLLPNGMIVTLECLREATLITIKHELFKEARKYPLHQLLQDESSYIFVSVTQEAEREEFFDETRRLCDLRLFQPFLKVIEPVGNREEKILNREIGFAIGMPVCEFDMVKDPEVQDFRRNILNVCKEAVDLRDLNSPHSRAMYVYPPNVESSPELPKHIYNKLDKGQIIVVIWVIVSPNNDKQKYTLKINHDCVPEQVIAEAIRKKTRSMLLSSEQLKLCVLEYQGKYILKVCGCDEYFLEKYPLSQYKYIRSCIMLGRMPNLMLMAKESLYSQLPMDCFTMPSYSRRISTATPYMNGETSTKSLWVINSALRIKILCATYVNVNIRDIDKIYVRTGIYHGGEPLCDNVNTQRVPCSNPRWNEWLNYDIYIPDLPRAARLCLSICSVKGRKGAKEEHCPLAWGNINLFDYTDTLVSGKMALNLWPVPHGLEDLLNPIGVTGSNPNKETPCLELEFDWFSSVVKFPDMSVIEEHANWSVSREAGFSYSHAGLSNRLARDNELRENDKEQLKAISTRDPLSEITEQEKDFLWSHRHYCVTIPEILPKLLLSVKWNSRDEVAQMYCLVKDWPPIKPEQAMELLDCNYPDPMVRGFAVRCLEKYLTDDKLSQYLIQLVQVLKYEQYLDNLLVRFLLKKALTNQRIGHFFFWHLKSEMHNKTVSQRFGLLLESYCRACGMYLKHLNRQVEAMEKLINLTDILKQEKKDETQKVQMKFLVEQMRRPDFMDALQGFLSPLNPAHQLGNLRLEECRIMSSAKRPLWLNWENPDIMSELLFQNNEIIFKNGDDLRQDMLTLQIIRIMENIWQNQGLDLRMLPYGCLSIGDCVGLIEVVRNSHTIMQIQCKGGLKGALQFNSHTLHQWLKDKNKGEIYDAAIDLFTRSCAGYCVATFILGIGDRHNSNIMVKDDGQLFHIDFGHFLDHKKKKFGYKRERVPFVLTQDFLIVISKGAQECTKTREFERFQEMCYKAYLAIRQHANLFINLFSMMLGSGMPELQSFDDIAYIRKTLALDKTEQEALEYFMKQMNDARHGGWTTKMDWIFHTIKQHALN
H1047R PIK3CA enzyme, sequence (P27986 whole entry partner): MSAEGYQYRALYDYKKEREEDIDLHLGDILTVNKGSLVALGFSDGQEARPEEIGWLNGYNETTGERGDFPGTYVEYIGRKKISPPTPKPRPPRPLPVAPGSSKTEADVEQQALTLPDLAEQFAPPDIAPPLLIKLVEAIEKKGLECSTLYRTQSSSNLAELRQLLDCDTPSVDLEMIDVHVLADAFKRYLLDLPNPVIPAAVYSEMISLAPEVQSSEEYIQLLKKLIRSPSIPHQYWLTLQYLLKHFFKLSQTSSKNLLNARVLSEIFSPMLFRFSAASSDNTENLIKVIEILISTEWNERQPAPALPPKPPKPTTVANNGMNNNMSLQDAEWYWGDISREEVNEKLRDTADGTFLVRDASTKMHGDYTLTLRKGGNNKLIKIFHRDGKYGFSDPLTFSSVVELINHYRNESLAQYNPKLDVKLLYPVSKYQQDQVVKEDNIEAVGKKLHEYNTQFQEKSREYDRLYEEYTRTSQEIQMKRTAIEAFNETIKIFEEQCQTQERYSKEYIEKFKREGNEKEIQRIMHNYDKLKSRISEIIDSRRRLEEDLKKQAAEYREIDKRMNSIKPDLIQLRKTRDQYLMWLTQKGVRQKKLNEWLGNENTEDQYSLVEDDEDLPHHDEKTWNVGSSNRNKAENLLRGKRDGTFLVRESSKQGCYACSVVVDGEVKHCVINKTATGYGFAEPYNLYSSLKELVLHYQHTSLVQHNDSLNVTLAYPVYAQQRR

Compound	IC50 (H1047R PIK3CA enzyme; [1])	IC50 (cells)	IC50 (H1047R PIK3CA enzyme)
Cc1ccccc1Nc1ncc(C(=O)N[C@@H]2CC(=O)N(C)C2)cc1NC(=O)c1csc2ccccc12 (single isomer, unassigned) [I-435]	≤ 100 nM	5000 to 10000 nM	
Cc1ccccc1Nc1ncc(Br)cc1NC(=O)c1cc(F)cc(C(F)(F)F)c1 [I-60]		1000 to 5000 nM	1000 to 10000 nM
Cc1ccccc1Nc1ncncc1NC(=O)c1csc2ccccc12 [I-413]	1000 to 10000 nM	10000 to 36000 nM	
Cc1ccccc1Nc1ncc(C(=O)N[C@H]2C[C@H](C(=O)O)C2)cc1NC(=O)c1csc2ccccc12 [I-685]	500 to 1000 nM	10000 to 36000 nM	
Cc1ccccc1Nc1ncc(C(=O)NC2C[S+]([O-])C2)cc1NC(=O)c1csc2ccccc12 (centres unmarked) [I-311]		1000 to 5000 nM	≤ 100 nM
Cc1ccccc1Nc1ncc(C(=O)NC2C[S+]([O-])C2)cc1NC(=O)c1nsc2ccccc12 (centres unmarked) [I-331]		1000 to 5000 nM	100 to 500 nM
Cc1ccccc1Nc1ncc(C(=O)N[C@@H]2CC[C@@H](F)C2)cc1NC(=O)c1csc2ccccc12 [I-547]	100 to 500 nM	5000 to 10000 nM	
Cc1ccccc1Nc1ncc(C(=O)NC2CCC(O)CC2)cc1NC(=O)c1cc(F)cc(C(F)(F)F)c1 (centres unmarked) [I-276]		1000 to 5000 nM	100 to 500 nM
Cc1ccccc1Nc1ncc(C(=O)Nc2ccc3cccnc3c2)cc1NC(=O)c1csc2ccccc12 [I-539]	500 to 1000 nM	36000 to 100000 nM	
CNC(=O)c1cnc(Nc2ccc(C)cc2)c(NC(=O)c2cc(F)cc(C(F)(F)F)c2)c1 [I-36]		10000 to 36000 nM	500 to 1000 nM
O=C1C[C@@H](CNC(=O)c2cc(F)cc(C(F)(F)F)c2)[C@H](c2cc(F)ccc2Cl)N1 (racemic) [I-801, N-{[(2R,3S)-2-(2-chloro-5-fluorophenyl)-5-oxopyrrolidin-3-yl]methyl}-3-fluoro-5-(trifluoromethyl)benzamide]		1000 to 5000 nM	100 to 500 nM
Cc1ccccc1Nc1ncc(C(=O)NCC2CCC(O)C2)cc1NC(=O)c1csc2ccccc12 (centres unmarked) [I-588]	100 to 500 nM	10000 to 36000 nM	
Cc1ccccc1Nc1ncc(C(=O)Nc2cccnc2)cc1NC(=O)c1cc(F)cc(C(F)(F)F)c1 [I-239]		1000 to 5000 nM	100 to 500 nM
CNC(=O)c1cnc(Nc2ccccc2OC)c(NC(=O)c2csc3ccccc23)c1 [I-407]	1000 to 10000 nM	36000 to 100000 nM	
CCn1ccc(C)c(CNC(=O)c2cnc(Nc3ccccc3C)c(NC(=O)c3csc4ccccc34)c2)c1=O [I-611]	100 to 500 nM	5000 to 10000 nM	
Cc1ccccc1Nc1ncc(C(=O)NCc2ccnn2C)cc1NC(=O)c1cc(F)cc(C(F)(F)F)c1 [I-52]		1000 to 5000 nM	100 to 500 nM
COc1ncc(-c2cnc(Nc3ccccc3C)c(NC(=O)c3cc(F)cc(C(F)(F)F)c3)c2)cn1 [I-57]		1000 to 5000 nM	500 to 1000 nM
Cc1ccccc1Nc1ncc(C(=O)Nc2cccnn2)cc1NC(=O)c1csc2ccccc12 [I-496]	500 to 1000 nM	10000 to 36000 nM	
CNC(=O)c1cnc(Nc2nccs2)c(NC(=O)c2cc(F)cc(C(F)(F)F)c2)c1 [I-299]		36000 to 100000 nM	10000 to 100000 nM
CNC(=O)c1cnc(Nc2ccccc2C)c(NC(=O)c2coc3c(F)cc(F)cc23)c1 [I-406]	500 to 1000 nM	1000 to 5000 nM	
Cc1ccccc1Nc1c(F)cc(C(=O)NC2CS(=O)(=O)C2)cc1NC(=O)c1csc2ccccc12 [I-774]	≤ 100 nM	10000 to 36000 nM	
O=C(NCc1nccs1)c1cnc(N2CCCc3ccccc32)c(NC(=O)c2cc(F)cc(C(F)(F)F)c2)c1 [I-209]		10000 to 36000 nM	500 to 1000 nM
Cc1ccccc1Nc1ncc(C(=O)NCc2ccnn2C)cc1NC(=O)c1csc2ccccc12 [I-135]		1000 to 5000 nM	100 to 500 nM
Cc1ccccc1Nc1ncc(C(=O)Nc2ccnnc2)cc1NC(=O)c1cc(F)cc(C(F)(F)F)c1 [I-240]		< 1000 nM	100 to 500 nM
Cc1ccccc1Nc1ncc(C(=O)Nc2ccncc2)cc1NC(=O)c1cc(F)cc(C(F)(F)F)c1 [I-234]		< 1000 nM	100 to 500 nM
Cc1ccccc1Nc1ncc(C(=O)NCC(O)C2CCCC2)cc1NC(=O)c1csc2ccccc12 (centres unmarked) [I-610]	100 to 500 nM	10000 to 36000 nM	
CNC(=O)c1cnc(Nc2ccccc2C)c(NC(=O)c2cc(F)cc(OC(F)(F)F)c2)c1 [I-312]		36000 to 100000 nM	1000 to 10000 nM
CNC(=O)c1cnc(Nc2ccccc2C)c(NC(=O)c2nsc3ccccc23)c1 [I-139]		10000 to 36000 nM	500 to 1000 nM

Compound	IC50 (H1047R PIK3CA enzyme; [1])	IC50 (cells)	IC50 (H1047R PIK3CA enzyme)
Cc1ccccc1Nc1ncc(C(=O)NCC2CCOCC2)cc1NC(=O)c1csc2ccccc12 [I-198]		10000 to 36000 nM	100 to 500 nM
CNC(=O)[C@H]1C[C@@H](NC(=O)c2cnc(Nc3ccccc3C)c(NC(=O)c3csc4ccccc34)c2)C1 [I-692]	100 to 500 nM	10000 to 36000 nM	
Cc1cc(Cn2cc(NC(=O)c3csc4ccccc34)c(Nc3ccccc3C)cc2=O)no1 [I-390]		10000 to 36000 nM	100 to 500 nM
CNC(=O)c1cnc(Nc2ccccc2C)c(NC(=O)c2cc3c(Br)cccn3c2)c1 [I-486]	100 to 500 nM	10000 to 36000 nM	
CNC(=O)c1cnc(Nc2ccccc2Cl)c(NC(=O)c2csc3ccccc23)c1 [I-362]		10000 to 36000 nM	≤ 100 nM
COCCNC(=O)c1cnc(Nc2ccccc2C)c(NC(=O)c2csc3ccccc23)c1 [I-190]		10000 to 36000 nM	100 to 500 nM
Cc1ccccc1Nc1ncc(C(=O)NCc2cn(C)nc2C)cc1NC(=O)c1csc2ccccc12 [I-601]	≤ 100 nM	5000 to 10000 nM	
CNC(=O)c1cnc(Nc2cccc(F)c2C)c(NC(=O)c2cc(F)cc(C(F)(F)F)c2)c1 [I-302]		5000 to 10000 nM	500 to 1000 nM
CNC(=O)c1cnc(Nc2cccc(F)c2OC)c(NC(=O)c2cc(F)cc(C(F)(F)F)c2)c1 [I-303]		36000 to 100000 nM	1000 to 10000 nM
CNC(=O)c1cnc(Nc2ccccc2C)c(NC(=O)c2cc(F)cc(C(F)(F)F)c2)c1 [I-1]		5000 to 10000 nM	500 to 1000 nM
Cc1ccccc1Nc1ncc(C(=O)NC2COC2)cc1NC(=O)c1csc2ccccc12 [I-192]		36000 to 100000 nM	100 to 500 nM
Cc1ccccc1Nc1ncc(C(=O)NCc2nccc3ccccc23)cc1NC(=O)c1csc2ccccc12 [I-593]	100 to 500 nM	10000 to 36000 nM	
Cc1ccccc1Nc1ncc(C(=O)NC2COCC(O)C2)cc1NC(=O)c1csc2ccccc12 (centres unmarked) [I-585]	100 to 500 nM	10000 to 36000 nM	
Cc1ccccc1Nc1ncc(C(=O)Nc2cnn(C)c2)cc1NC(=O)c1csc2ccccc12 [I-624]	100 to 500 nM	< 1000 nM	
Cc1ccccc1Nc1ncc(C(=O)N[C@H]2CCCOC2)cc1NC(=O)c1csc2ccccc12 [I-545]	100 to 500 nM	1000 to 5000 nM	
Cc1ccccc1Nc1cc2nnc(N)n2cc1NC(=O)c1csc2ccccc12 [I-350]		1000 to 5000 nM	1000 to 10000 nM
CNC(=O)c1cnc(Nc2ccccc2C(C)C)c(NC(=O)c2cc(F)cc(C(F)(F)F)c2)c1 [I-298]		36000 to 100000 nM	1000 to 10000 nM
Cc1ccccc1Nc1ncc(C(=O)NCC2(O)CCOCC2)cc1NC(=O)c1csc2ccccc12 [I-603]	500 to 1000 nM	10000 to 36000 nM	
CNC(=O)c1cnc(Nc2ccccc2C)c(NC(=O)c2cc(Br)cc3c2cnn3C)c1 [I-510]	100 to 500 nM	10000 to 36000 nM	
Cc1ccccc1Nc1ncc(C(=O)NC2CC(=O)N(C)C2)cc1NC(=O)c1csc2ccccc12 (centres unmarked) [I-434]	100 to 500 nM	5000 to 10000 nM	
Cc1ccccc1Nc1ncc(C(=O)NCc2ccn(C)n2)cc1NC(=O)c1cc(F)cc(C(F)(F)F)c1 [I-178]		1000 to 5000 nM	100 to 500 nM
Cc1ccccc1Nc1cccnc1NC(=O)c1csc2ccccc12 [I-635]	100 to 500 nM	36000 to 100000 nM	
Cc1ccccc1Nc1ncc(C(=O)N[C@H]2COC[C@@H]2O)cc1NC(=O)c1csc2ccccc12 [I-618]	100 to 500 nM	1000 to 5000 nM	
Cc1ccccc1Nc1ncc(C(=O)N2CCn3nccc32)cc1NC(=O)c1csc2ccccc12 [I-627]	1000 to 10000 nM	10000 to 36000 nM	
Cc1ccccc1Nc1ncc(C(=O)N2CC(O)C2)cc1NC(=O)c1csc2ccccc12 [I-613]	100 to 500 nM	10000 to 36000 nM	
CNC(=O)c1cnc(Nc2ncccc2OC)c(NC(=O)c2csc3ccccc23)c1 [I-405]	10000 to 100000 nM	36000 to 100000 nM	
CNC(=O)c1cnc(Nc2ncco2)c(NC(=O)c2cc(F)cc(C(F)(F)F)c2)c1 [I-291]		36000 to 100000 nM	10000 to 100000 nM

— patent US20250090540A1, “PI3K-ALPHA INHIBITORS AND METHODS OF USE THEREOF” (Relay Therapeutics, Inc., priority 2021, published 2025)
